The source made the active and inactive calls. The calls are words filed in the database; no cut-off is given here.
How the values were obtained:
Canis familiaris [1] = species: Canis familiaris; assay: In vitro effect on methemoglobin formation in blood of dog at 5 mM concentration; type: functional, Canis lupus familiaris
Canis familiaris [2] = species: Canis familiaris; assay: In vitro effect on methemoglobin formation in blood of dog at 1 mM concentration; type: functional, Canis lupus familiaris
Canis familiaris [3] = species: Canis familiaris; assay: In vitro effect on methemoglobin formation in blood of dog at 5 mM concentration; Nil; type: functional; conditions: Canis lupus familiaris
Canis familiaris [4] = species: Canis familiaris; assay: In vitro effect on methemoglobin formation in blood of dog at 1 mM concentration; Nil; type: functional; conditions: Canis lupus familiaris

| Compound | Methemoglobin (Canis familiaris [1]) | Methemoglobin (Canis familiaris [2]) | Methemoglobin (Canis familiaris [3]) | Methemoglobin (Canis familiaris [4]) | Methemoglobin (Canis familiaris [1]; Canis lupus familiaris) |
| --- | --- | --- | --- | --- | --- |
| COc1cc(NC(C)CCCN)c2ncccc2c1 (stereo not drawn) [PRIMAQUINE] | 87.6% | 11.52% | – | – | – |
| O=C(O)C(CCCCNc1ccnc2cc(Cl)ccc12)Nc1ccnc2cc(Cl)ccc12 (stereo not drawn) | – | – | Nil | Nil | – |
| CCN(CC)CCCC(C)Nc1ccnc2cc(Cl)ccc12 (stereo not drawn) | – | – | inactive | inactive | – |
| Clc1ccc2c(NCCCCNc3ccnc4cc(Cl)ccc34)ccnc2c1 | 90.8% | 29.5% | – | – | – |
| N/C(=N\CCCC(Nc1ccnc2cc(Cl)ccc12)C(=O)O)Nc1ccnc2cc(Cl)ccc12 (stereo not drawn) | 1.5% | – | – | Nil | – |
| O=C(O)C(CCCNc1ccnc2cc(Cl)ccc12)Nc1ccnc2cc(Cl)ccc12 (stereo not drawn) | 6.89% | – | – | Nil | – |
| Clc1ccc2c(NCCN3CCN(c4ccnc5cc(Cl)ccc45)CC3)ccnc2c1 | – | – | – | Nil | Nil |
| O=[N+]([O-])c1cc2c(NCCCCNc3ccnc4cc(Cl)c([N+](=O)[O-])cc34)ccnc2cc1Cl | 6.42% | – | – | Nil | – |
| Clc1ccc2c(NCCNCCCCNCCNc3ccnc4cc(Cl)ccc34)ccnc2c1 | 3% | – | – | Nil | – |

From ChEMBL document CHEMBL1131958, “Synthesis of bisquinolines and their in vitro ability to produce methemoglobin in canine hemolysate” (1999)
